Test results reported in ChEMBL document CHEMBL1201862, “PubChem BioAssay data set” (2004).
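The compound was tested at five concentrations on cells cultured in 96-well plates, with a 48-hour exposure period. GI50 marks 50% less growth.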 The source made the active and inactive calls. No stated cut-off is given here; in the data, active = GI50 up to about 1.1 µM and inactive = higher.

Columns and labels:
Assay in all cases: NCI anticancer screen, dose series, 48 h
EKVX = system: EKVX
CCRF-CEM = system: CCRF-CEM
RXF 631 = system: RXF 631
DMS-273 = system: DMS-273
COLO 205 = system: COLO 205
SF-539 = system: SF-539
A498 = system: A498
SR = system: SR
UACC-62 = system: UACC-62
M14 = system: M14
KM-20L2 = system: KM-20L2
K562 = system: K562
HCC 2998 = system: HCC 2998
786-0 = system: 786-0
U-251 = system: U-251
LOX IMVI = system: LOX IMVI
TK-10 = system: TK-10
ACHN = system: ACHN
RXF 393 = system: RXF 393
HOP-92 = system: HOP-92
NCI-H226 = system: NCI-H226
SF-295 = system: SF-295
OVCAR-8 = system: OVCAR-8
NCI-H522 = system: NCI-H522
SNB-19 = system: SNB-19
SF-268 = system: SF-268
HOP-18 = system: HOP-18
OVCAR-4 = system: OVCAR-4
A549 = system: A549
SW-620 = system: SW-620
UACC-257 = system: UACC-257
KM12 = system: KM12
SK-MEL-5 = system: SK-MEL-5
DMS-114 = system: DMS-114
LXFL 529 = system: LXFL 529
DLD-1 = system: DLD-1
SK-MEL-2 = system: SK-MEL-2
HT-29 = system: HT-29
HCT-15 = system: HCT-15
SNB-78 = system: SNB-78
SNB-75 = system: SNB-75
HL-60 = system: HL-60
CAKI-1 = system: CAKI-1
OVCAR-3 = system: OVCAR-3
SK-OV-3 = system: SK-OV-3
SK-MEL-28 = system: SK-MEL-28
NCI-H23 = system: NCI-H23
SN12C = system: SN12C
IGROV-1 = system: IGROV-1
RPMI-8226 = system: RPMI-8226
XF498 = system: XF498
MOLT-4 = system: MOLT-4
HCT-116 = system: HCT-116
UO-31 = system: UO-31
OVCAR-5 = system: OVCAR-5
Malme-3M = system: Malme-3M
NCI-H460 = system: NCI-H460
HOP-62 = system: HOP-62
M19-MEL = system: M19-MEL

`CC12C3CC4C5CC(C(C53)[C@@H]1NCc1ccccc1)C42` (stereo not given in full) was tested, and the GI50 (EKVX) was > 100 µM (inactive), the GI50 (CCRF-CEM) was > 100 µM (inactive) and the GI50 (RXF 631) was 84.3 µM (inactive). For the same molecule, the GI50 (DMS-273) was > 100 µM (inactive), the GI50 (COLO 205) was 18.5 µM (inactive) and the GI50 (SF-539) was > 100 µM (inactive). The GI50 (A498) was > 100 µM (inactive), the GI50 (SR) was > 100 µM (inactive) and the GI50 (UACC-62) was > 100 µM (inactive). For the same molecule, the GI50 (M14) was > 100 µM (inactive), the GI50 (KM-20L2) was 23.2 µM (inactive) and the GI50 (K562) was 62.7 µM (inactive). The GI50 (HCC 2998) was 15.5 µM (inactive), the GI50 (786-0) was > 100 µM (inactive) and the GI50 (U-251) was 97.5 µM (inactive). The GI50 (LOX IMVI) was > 100 µM (inactive), the GI50 (TK-10) was > 100 µM (inactive) and the GI50 (ACHN) was > 100 µM (inactive). For the same molecule, the GI50 (RXF 393) was 84.9 µM (inactive), the GI50 (HOP-92) was 55.7 µM (inactive) and the GI50 (NCI-H226) was > 100 µM (inactive). For the same molecule, the GI50 (SF-295) was > 100 µM (inactive), the GI50 (OVCAR-8) was > 100 µM (inactive) and the GI50 (NCI-H522) was 36.2 µM (inactive). For the same molecule, the GI50 (SNB-19) was > 100 µM (inactive), the GI50 (SF-268) was > 100 µM (inactive) and the GI50 (HOP-18) was > 100 µM (inactive). For the same molecule, the GI50 (OVCAR-4) was > 100 µM (inactive), the GI50 (A549) was > 100 µM (inactive) and the GI50 (SW-620) was > 100 µM (inactive). For the same molecule, the GI50 (UACC-257) was > 100 µM (inactive), the GI50 (KM12) was > 100 µM (inactive) and the GI50 (SK-MEL-5) was 31.5 µM (inactive). The GI50 (DMS-114) was > 100 µM (inactive), the GI50 (LXFL 529) was > 100 µM (inactive) and the GI50 (DLD-1) was > 100 µM (inactive). For the same molecule, the GI50 (SK-MEL-2) was > 100 µM (inactive), the GI50 (HT-29) was 24.4 µM (inactive) and the GI50 (HCT-15) was 78.9 µM. The GI50 (SNB-78) was > 100 µM (inactive), the GI50 (SNB-75) was > 100 µM (inactive) and the GI50 (HL-60) was > 100 µM (inactive). The GI50 (CAKI-1) was 79.8 µM (inactive), the GI50 (OVCAR-3) was 54.3 µM (inactive) and the GI50 (SK-OV-3) was > 100 µM (inactive). The GI50 (SK-MEL-28) was > 100 µM (inactive), the GI50 (NCI-H23) was > 100 µM (inactive) and the GI50 (SN12C) was > 100 µM (inactive). For the same molecule, the GI50 (IGROV-1) was > 100 µM (inactive), the GI50 (RPMI-8226) was > 100 µM (inactive) and the GI50 (XF498) was > 100 µM (inactive). For the same molecule, the GI50 (MOLT-4) was > 100 µM (inactive), the GI50 (HCT-116) was > 100 µM (inactive) and the GI50 (UO-31) was 89.7 µM (inactive). The GI50 (OVCAR-5) was 86.9 µM (inactive), the GI50 (Malme-3M) was > 100 µM (inactive) and the GI50 (NCI-H460) was > 100 µM (inactive). The GI50 (HOP-62) was > 100 µM (inactive).
In the case of `C/C(=N/NS(=O)(=O)c1ccccc1)c1cccc[n+]1[O-]`, the GI50 (EKVX) was > 100 µM (inactive), the GI50 (CCRF-CEM) was > 100 µM (inactive) and the GI50 (RXF 631) was > 100 µM (inactive). For the same molecule, the GI50 (DMS-273) was > 100 µM (inactive), the GI50 (SF-539) was > 100 µM (inactive) and the GI50 (A498) was > 100 µM (inactive). For the same molecule, the GI50 (SR) was > 100 µM (inactive), the GI50 (UACC-62) was > 100 µM (inactive) and the GI50 (M14) was > 100 µM (inactive). The GI50 (KM-20L2) was > 100 µM (inactive), the GI50 (HCC 2998) was > 100 µM (inactive) and the GI50 (786-0) was > 100 µM (inactive). For the same molecule, the GI50 (M19-MEL) was > 100 µM (inactive), the GI50 (U-251) was > 100 µM (inactive) and the GI50 (TK-10) was > 100 µM (inactive). For the same molecule, the GI50 (ACHN) was > 100 µM (inactive), the GI50 (HOP-92) was > 100 µM (inactive) and the GI50 (SF-295) was > 100 µM (inactive). The GI50 (OVCAR-8) was > 100 µM (inactive), the GI50 (NCI-H522) was > 100 µM (inactive) and the GI50 (SNB-19) was > 100 µM (inactive). For the same molecule, the GI50 (SF-268) was > 100 µM (inactive), the GI50 (HOP-18) was > 100 µM (inactive) and the GI50 (OVCAR-4) was > 100 µM (inactive). The GI50 (A549) was > 100 µM (inactive), the GI50 (SW-620) was > 100 µM (inactive) and the GI50 (UACC-257) was > 100 µM (inactive). The GI50 (KM12) was > 100 µM (inactive), the GI50 (SK-MEL-5) was > 100 µM (inactive) and the GI50 (DMS-114) was > 100 µM (inactive). The GI50 (LXFL 529) was > 100 µM (inactive), the GI50 (DLD-1) was > 100 µM (inactive) and the GI50 (HT-29) was > 100 µM (inactive). The GI50 (HCT-15) was greater than 100 µM, the GI50 (SNB-78) was > 100 µM (inactive) and the GI50 (SNB-75) was > 100 µM (inactive). For the same molecule, the GI50 (HL-60) was > 100 µM (inactive), the GI50 (CAKI-1) was > 100 µM (inactive) and the GI50 (OVCAR-3) was > 100 µM (inactive). For the same molecule, the GI50 (SK-OV-3) was > 100 µM (inactive), the GI50 (SK-MEL-28) was > 100 µM (inactive) and the GI50 (NCI-H23) was > 100 µM (inactive). For the same molecule, the GI50 (SN12C) was > 100 µM (inactive), the GI50 (IGROV-1) was > 100 µM (inactive) and the GI50 (RPMI-8226) was > 100 µM (inactive). For the same molecule, the GI50 (XF498) was > 100 µM (inactive), the GI50 (MOLT-4) was > 100 µM (inactive) and the GI50 (HCT-116) was > 100 µM (inactive). The GI50 (UO-31) was > 100 µM (inactive), the GI50 (OVCAR-5) was > 100 µM (inactive) and the GI50 (NCI-H460) was > 100 µM (inactive). For the same molecule, the GI50 (HOP-62) was > 100 µM (inactive).
